Measured values: ChEMBL document CHEMBL4390638, “SYA 013 analogs as moderately selective sigma-2 (σ2) ligands: Structure-affinity relationship studies” (Bioorg Med Chem, 2019)
pKi: −log10 of the molar value.

Assays:
[1] = target: Sigma non-opioid intracellular receptor 1 (Homo sapiens, UniProt Q99720); test: Displacement [3H]-Pentazocine from sigma 1 receptor (unknown origin) expressed in HEK cell membranes; conditions: for pKi: read-out: Ki
[2] = target: Sigma intracellular receptor 2 (Homo sapiens, UniProt Q5BJF2); test: Displacement [3H]-DTG from sigma 2 receptor (unknown origin) expressed in HEK cell membranes
Sequence of Sigma intracellular receptor 2 (Q5BJF2 whole entry): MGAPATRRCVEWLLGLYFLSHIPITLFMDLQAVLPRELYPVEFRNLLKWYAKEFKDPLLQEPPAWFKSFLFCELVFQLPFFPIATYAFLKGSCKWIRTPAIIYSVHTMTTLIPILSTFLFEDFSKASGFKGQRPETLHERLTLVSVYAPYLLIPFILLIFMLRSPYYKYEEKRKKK

[3] = species: Homo sapiens; test: Selectivity index, ratio of Ki for displacement [3H]-Pentazocine from sigma 1 receptor (unknown origin) expressed in HEK cell membranes to Ki for [3H]-DTG from sigma 2 receptor (unknown origin) expressed in HEK cell membranes

Sequence of Sigma non-opioid intracellular receptor 1 (Q99720 whole entry): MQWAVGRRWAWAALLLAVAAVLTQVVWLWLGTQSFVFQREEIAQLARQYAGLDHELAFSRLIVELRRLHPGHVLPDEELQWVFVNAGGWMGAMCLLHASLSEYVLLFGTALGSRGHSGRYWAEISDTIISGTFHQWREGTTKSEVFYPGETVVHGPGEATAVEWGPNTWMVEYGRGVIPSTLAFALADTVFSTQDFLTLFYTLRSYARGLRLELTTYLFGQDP

Row | SMILES | pKi [1] | pKi [2] | Ratio Ki [3] | Ki ([1]; read-out: pKi (converted))
1 | O=C(CCCN1CCN(c2ccc(Cl)cn2)CC1)c1ccc(F)cc1 | 7.60 | 8.08 | 3 | –
2 | Fc1ccc(OCCCN2CCCN(c3ccc(Cl)cc3)CC2)cc1 | 8.54 | 8.23 | 0.5 | –
3 | Clc1ccc(N2CCN(CCCOc3ccccc3)CC2)cc1 | 7.29 | 7.48 | 1.6 | –
4 | Fc1ccc(CCCCN2CCN(c3ccc(Cl)cn3)CC2)cc1 | 7.02 | 7.37 | 2.2 | –
5 | O=C(CCCN1CCCN(c2ccccn2)CC1)c1ccc(F)cc1 | – | 7.49 | 14 | 457 nM
6 | Fc1ccc(CCCCN2CCN(c3ccc(Cl)cc3)CC2)cc1 | 7.44 | – | – | –
7 | c1ccc(OCCCN2CCN(c3ccccc3)CC2)cc1 | 7.11 | 7.60 | 3.1 | –
8 | Fc1ccc(CCCCN2CCCN(c3ccc(Cl)cc3)CC2)cc1 | 8.44 | 8.07 | 0.4 | –
9 | O=C(CCCN1CCCN(c2ncccn2)CC1)c1ccc(F)cc1 | 7.20 | 7.36 | 1.4 | –
10 | Fc1ccc(OCCCN2CCN(c3ccccc3)CC2)cc1 | 7.38 | 8.29 | 8.1 | –
11 | O/N=C(/CCCN1CCCN(c2ncccn2)CC1)c1ccc(F)cc1 | 6.83 | 7.59 | 5.7 | –
12 | OC1(c2ccc(Cl)cc2)CC2CCC(C1)N2CCCSc1ccc(F)cc1 (stereo unspecified) | 7.09 | – | – | –
13 | Fc1ccc(SCCCN2CCCN(c3ccc(Cl)cn3)CC2)cc1 | 8.14 | 8.66 | 3.3 | –
14 | O/N=C(/CCCN1CCCN(c2ccc(Cl)cn2)CC1)c1ccc(F)cc1 | 6.95 | 8.57 | 41.8 | –
15 | O=C(CCCN1CCN(c2ccccn2)CC1)c1ccc(F)cc1 [AZAPERONE] | 6.39 | 7.28 | 7.8 | –
16 | O/N=C(/CCCN1CCCN(c2ccccn2)CC1)c1ccc(F)cc1 | 7.15 | 7.88 | 5.3 | –
17 | OC1(c2ccc(Cl)cc2)CC2CCC(C1)N2CCCOc1ccc(F)cc1 (stereo unspecified) | 6.78 | 7.74 | – | –
18 | OC1(c2ccc(Cl)cc2)CC2CCC(C1)N2CCCCc1ccc(F)cc1 (stereo unspecified) | 7.66 | 7.57 | 0.8 | –
19 | OC1(c2ccc(Cl)cc2)CC2CCC(C1)N2CCCSc1cccc(F)c1 (stereo unspecified) | 7.15 | 8.09 | 8.8 | –
20 | [O-][S+](CCCN1CCN(c2ccc(Cl)cc2)CC1)c1ccc(F)cc1 (stereo unspecified) | 5.94 | 6.22 | 1.9 | –
21 | OC1(c2ccc(Cl)cc2)CC2CCC(C1)N2CCCSc1ccccc1F (stereo unspecified) | 7.24 | 8.66 | 25.9 | –
22 | O=C(CCCN1CCCN(c2ccc(Cl)cn2)CC1)c1ccc(F)cc1 | 7.52 | 8.10 | 3.8 | –
